Results published in ChEMBL document CHEMBL1125505, “Nucleosides and nucleotides. 112. 2-(1-Hexyn-1-yl)adenosine-5'-uronamides: a new entry of selective A2 adenosine receptor agonists with potent antihypertensive activity” (J Med Chem, 1992).

Key:
Rattus norvegicus [1] = experiment: Dose producing 10% decrease in heart rate of anesthetized spontaneously hypertensive rats (SHR's); assay type: functional
Adenosine A2 receptor = Adenosine A2 receptor (Rattus norvegicus, UniProt P29276+P30543); assay type: protein assay
Rattus norvegicus [2] = experiment: Dose producing 30% decrease in blood pressure of anesthetized spontaneously hypertensive rats (SHR's); assay type: functional
Adenosine receptor A1 = target: T1, Adenosine receptor A1 (Rattus norvegicus, UniProt P25099); experiment: Binding affinity against adenosine A1 receptor from rat brain membranes using [3H]cyclohexyladenosine as radioligand.
T1 sequence (P25099 whole entry): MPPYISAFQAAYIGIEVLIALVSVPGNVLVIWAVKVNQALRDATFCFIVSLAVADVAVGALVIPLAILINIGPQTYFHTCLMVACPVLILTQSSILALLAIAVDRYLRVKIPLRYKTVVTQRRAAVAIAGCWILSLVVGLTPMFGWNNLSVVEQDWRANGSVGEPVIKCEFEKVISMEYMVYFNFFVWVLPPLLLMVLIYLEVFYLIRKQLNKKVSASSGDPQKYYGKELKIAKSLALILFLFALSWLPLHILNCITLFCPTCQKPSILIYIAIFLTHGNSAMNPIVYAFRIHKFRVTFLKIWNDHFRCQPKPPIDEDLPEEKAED

Ki (Adenosine A2 receptor) [nM] | Ki (Adenosine receptor A1) [nM] | Structure (SMILES) | ED10 (Rattus norvegicus [1]) [mg/kg] | ED30 (Rattus norvegicus [2]) [µg/kg]
> 181 | > 472 | CCCCC#Cc1nc(N)c2ncn(C3O[C@H](CNC=O)[C@@H](O)[C@H]3O)c2n1 (some centres undefined) | > 0.1 | > 100
> 181 | > 472 | CCCCC#Cc1nc(N)c2ncn(C3O[C@H](CNC(C)=O)[C@@H](O)[C@H]3O)c2n1 (some centres undefined) | > 0.1 | > 100
5.2 | 217 | CCCCC#Cc1nc(N)c2ncn([C@@H]3O[C@H](CCl)[C@@H](O)[C@H]3O)c2n1 | > 0.003 | > 3
4.8 | 276 | CCCCC#Cc1nc(N)c2ncn([C@@H]3O[C@H](C(=O)NCC)[C@@H](O)[C@H]3O)c2n1 | > 0.1 | 0.3
6.1 | 117 | CCCCCCC#Cc1nc(N)c2ncn([C@@H]3O[C@H](CO)[C@@H](O)[C@H]3O)c2n1 | > 0.1 | 0.35
11 | 1780 | CCCCC#Cc1nc(N)c2ncn(C3O[C@H](C(=O)NC)[C@@H](O)[C@H]3O)c2n1 (some centres undefined) | > 0.1 | 0.51
> 181 | > 472 | CCCCC#Cc1nc(N)c2ncn(C3O[C@H](C/N=C(\S)NC)[C@@H](O)[C@H]3O)c2n1 (some centres undefined) | > 0.1 | 54.5
> 181 | > 472 | CCCCC#Cc1nc(N)c2ncn(C3O[C@H](CNC(=O)NC)[C@@H](O)[C@H]3O)c2n1 (some centres undefined) | > 0.1 | > 100
44 | 1810 | CCCCC#Cc1nc(N)c2ncn(C3O[C@H](C(=O)NCCC)[C@@H](O)[C@H]3O)c2n1 (some centres undefined) | > 0.1 | 2.88

The remaining lines, values behind:

Structure (SMILES) | Ki (Adenosine A2 receptor) [nM] | Ki (Adenosine receptor A1) [nM] | ED10 (Rattus norvegicus [1]) [mg/kg] | ED30 (Rattus norvegicus [2]) [µg/kg]
CC(=O)O[C@]1(C(C)=O)CC[C@H]2[C@@H]3C=C(Cl)C4=CC(=O)[C@@H]5C[C@@H]5[C@]4(C)[C@H]3CC[C@@]21C [CYPROTERONE ACETATE] | 336 | – | 0.00017 | 0.53
CCCCC#Cc1nc(N)c2ncn([C@@H]3O[C@H](CO)[C@@H](O)[C@H]3O)c2n1 | – | 103 | 0.0704 | 0.11
CCCCC#Cc1nc(N)c2ncn(C3O[C@H](CNS(C)(=O)=O)[C@@H](O)[C@H]3O)c2n1 (some centres undefined) | > 181 | > 472 | > 0.1 | > 100
COc1cc(OC)cc(C(CNc2ncnc3c2ncn3[C@@H]2O[C@H](CO)[C@@H](O)[C@H]2O)c2ccccc2C)c1 (some centres undefined) | 4.6 | 64 | > 0.1 | 12.3
CCCCC#Cc1nc(N)c2ncn([C@@H]3O[C@H](C(=O)NC4CC4)[C@@H](O)[C@H]3O)c2n1 | 2.6 | 136 | 0.0407 | 0.17
CCCCC#Cc1nc(N)c2ncn([C@@H]3O[C@H](C(=O)NCCCC)[C@@H](O)[C@H]3O)c2n1 | 169 | 1930 | > 0.1 | 26.4
CCNC(=O)[C@H]1O[C@@H](n2cnc3c(N)nc(NCCc4ccc(CCC(=O)O)cc4)nc32)[C@H](O)[C@@H]1O [CGS-21680] | – | – | > 0.1 | 0.83
Nc1nc(Nc2ccccc2)nc2c1ncn2[C@@H]1O[C@H](CO)[C@@H](O)[C@H]1O | 83 | – | > 0.1 | 6.1
CCNC(=O)[C@H]1O[C@@H](n2cnc3c(N)ncnc32)[C@H](O)[C@@H]1O [NECA] | – | – | 0.00035 | 0.23
CCCCC#Cc1nc(N)c2ncn([C@@H]3O[C@H](C(N)=O)[C@@H](O)[C@H]3O)c2n1 | 19 | 1270 | > 0.1 | 0.18
